Laboratory results taken from article PMC9516332 (Frontiers in Oncology, 2022).
Read-outs that look alike come from different tables or passages of the source.

Assays:
[1] = target: panel of 255 wild-type kinases (Homo sapiens, UniProt P29317); assay: Kinase panel profiling at 1 µmol/L (MSA or IMAP), percentage inhibition; type: biochemical; settings: kinase EPHA2; 1 µmol/L single concentration; read-out: %-inhibition at 1 µmol/L, EPHA2
[2] = target: panel of 255 wild-type kinases (Homo sapiens, UniProt Q9Y6M4); assay: as above; type: biochemical; settings: kinase CK1γ3; 1 µmol/L single concentration; read-out: %-inhibition at 1 µmol/L, CK1γ3
AP-1060 (ETV6-NTRK3) = assay: Cell viability assay; settings: read-out: IC50 in cell proliferation assay
134 cancer cell lines = assay: Cell viability assay (ATPlite, 72 hours), IC50 on cancer cell line panel

Work on `Cn1cnc2c(F)c(Nc3ccc(Br)cc3F)c(C(=O)NOCCO)cc21` [binimetinib] yielded an inhibition at 1 µM [1] of 9%, an inhibition at 1 µM [2] of 2.67% and an IC50 (AP-1060 (ETV6-NTRK3)) of 18.8 µM. The IC50 (134 cancer cell lines; HEC-6, read-out: IC50 in cell proliferation assay, HEC-6 cell line (EGFR p.A289V)) was > 31600 nM, the IC50 (134 cancer cell lines; Homo sapiens, 769-P, read-out: IC50 in cell proliferation assay, cell line 769-P) was 229 nM and the IC50 (134 cancer cell lines; Homo sapiens, 786-0, read-out: IC50 in cell proliferation assay, cell line 786-O) was > 31600 nM. The IC50 (134 cancer cell lines; Homo sapiens, A 172, read-out: IC50 in cell proliferation assay, cell line A-172) was 20000 nM, the IC50 (134 cancer cell lines; Homo sapiens, A204, read-out: IC50 in cell proliferation assay, cell line A-204) was > 31600 nM and the IC50 (134 cancer cell lines; Homo sapiens, A498, read-out: IC50 in cell proliferation assay, cell line A-498) was 53 nM. The IC50 (134 cancer cell lines; Homo sapiens, A549, read-out: IC50 in cell proliferation assay, cell line A-549) was 92 nM, the IC50 (134 cancer cell lines; Homo sapiens, A704, read-out: IC50 in cell proliferation assay, cell line A-704) was > 31600 nM and the IC50 (134 cancer cell lines; Homo sapiens, A-375, read-out: IC50 in cell proliferation assay, cell line A-375 (BRAF p.V600E)) was 86 nM. For the same compound, the IC50 (134 cancer cell lines; Homo sapiens, A-427, read-out: IC50 in cell proliferation assay, cell line A-427) was 625 nM, the IC50 (134 cancer cell lines; Homo sapiens, ACHN, read-out: IC50 in cell proliferation assay, cell line ACHN) was 32 nM and the IC50 (134 cancer cell lines; Homo sapiens, AN3-CA, read-out: IC50 in cell proliferation assay, cell line AN3-CA (FGFR2 p.N549K)) was 12800 nM. The IC50 (134 cancer cell lines; Homo sapiens, ASPC1, read-out: IC50 in cell proliferation assay, cell line AsPC-1) was 116 nM, the IC50 (134 cancer cell lines; Homo sapiens, AU565, read-out: IC50 in cell proliferation assay, cell line AU565 (ERBB2 amplification)) was > 31600 nM and the IC50 (134 cancer cell lines; Homo sapiens, BT-20, read-out: IC50 in cell proliferation assay, cell line BT-20) was > 31600 nM. For the same compound, the IC50 (134 cancer cell lines; Homo sapiens, BT-474, read-out: IC50 in cell proliferation assay, cell line BT-474 (ERBB2 amplification)) was > 31600 nM, the IC50 (134 cancer cell lines; Homo sapiens, BT-549, read-out: IC50 in cell proliferation assay, cell line BT-549) was 8680 nM and the IC50 (134 cancer cell lines; Homo sapiens, BXPC-3, read-out: IC50 in cell proliferation assay, cell line BxPC-3) was 24 nM. The IC50 (134 cancer cell lines; Homo sapiens, C-33-A, read-out: IC50 in cell proliferation assay, cell line C-33 A) was 72 nM, the IC50 (134 cancer cell lines; Homo sapiens, CAL-27, read-out: IC50 in cell proliferation assay, cell line CAL-27) was 117 nM and the IC50 (134 cancer cell lines; Homo sapiens, CCF-STTG1, read-out: IC50 in cell proliferation assay, cell line CCF-STTG1) was > 31600 nM. For the same compound, the IC50 (134 cancer cell lines; Homo sapiens, CCRF-CEM, read-out: IC50 in cell proliferation assay, cell line CCRF-CEM) was > 31600 nM, the IC50 (134 cancer cell lines; Homo sapiens, COLO 205, read-out: IC50 in cell proliferation assay, cell line COLO 205 (BRAF p.V600E)) was 31 nM and the IC50 (134 cancer cell lines; Homo sapiens, COLO-829, read-out: IC50 in cell proliferation assay, cell line COLO 829 (BRAF p.V600E)) was 125 nM. It also gave an IC50 (134 cancer cell lines; Homo sapiens, DLD-1, read-out: IC50 in cell proliferation assay, cell line DLD-1) of 522 nM, an IC50 (134 cancer cell lines; Homo sapiens, DU-4475, read-out: IC50 in cell proliferation assay, cell line DU4475 (BRAF p.V600E)) of 38 nM and an IC50 (134 cancer cell lines; Homo sapiens, Daoy, read-out: IC50 in cell proliferation assay, cell line Daoy) of 3980 nM. The IC50 (134 cancer cell lines; Homo sapiens, DoTc2-4510, read-out: IC50 in cell proliferation assay, cell line DoTc2 4510) was 113 nM, the IC50 (134 cancer cell lines; Homo sapiens, EOL1, read-out: IC50 in cell proliferation assay, cell line EoL-1 (FIP1L1-PDGFRA)) was 82 nM and the IC50 (134 cancer cell lines; Homo sapiens, FaDu, read-out: IC50 in cell proliferation assay, cell line FaDu) was 47 nM. It also gave an IC50 (134 cancer cell lines; Homo sapiens, G-361, read-out: IC50 in cell proliferation assay, cell line G-361 (BRAF p.V600E)) of 144 nM, an IC50 (134 cancer cell lines; Homo sapiens, HCC827, read-out: IC50 in cell proliferation assay, cell line HCC827 (EGFR exon19del)) of 268 nM and an IC50 (134 cancer cell lines; Homo sapiens, HCC4006, read-out: IC50 in cell proliferation assay, cell line HCC4006 (EGFR exon19del)) of 26600 nM. The IC50 (134 cancer cell lines; Homo sapiens, HCT-15, read-out: IC50 in cell proliferation assay, cell line HCT 15) was 1070 nM, the IC50 (134 cancer cell lines; Homo sapiens, HCT-116, read-out: IC50 in cell proliferation assay, cell line HCT 116) was 525 nM and the IC50 (134 cancer cell lines; Homo sapiens, HEC-1, read-out: IC50 in cell proliferation assay, HEC-1 cell line) was > 31600 nM. For the same compound, the IC50 (134 cancer cell lines; Homo sapiens, HEC-1B, read-out: IC50 in cell proliferation assay, HEC-1-B cell line (EGFR p.A864V)) was 12 nM, the IC50 (134 cancer cell lines; Homo sapiens, HL-60, read-out: IC50 in cell proliferation assay, HL-60 cell line) was 5 nM and the IC50 (134 cancer cell lines; Homo sapiens, HT, read-out: IC50 in cell proliferation assay, HT cell line) was > 31600 nM. The IC50 (134 cancer cell lines; Homo sapiens, HT-1080, read-out: IC50 in cell proliferation assay, HT-1080 cell line) was 27 nM, the IC50 (134 cancer cell lines; Homo sapiens, Hs746T, read-out: IC50 in cell proliferation assay, Hs 746.T cell line (MET exon14skip + amplification)) was 12500 nM and the IC50 (134 cancer cell lines; Homo sapiens, Hs-578T, read-out: IC50 in cell proliferation assay, Hs 578T cell line) was 143 nM. For the same compound, the IC50 (134 cancer cell lines; Homo sapiens, HuTu80, read-out: IC50 in cell proliferation assay, HuTu 80 cell line) was 3320 nM, the IC50 (134 cancer cell lines; Homo sapiens, J82, read-out: IC50 in cell proliferation assay, J82 cell line) was 200 nM and the IC50 (134 cancer cell lines; Homo sapiens, Jurkat E6.1, read-out: IC50 in cell proliferation assay, Jurkat E6.1 cell line) was > 31600 nM. It also gave an IC50 (134 cancer cell lines; Homo sapiens, K562, read-out: IC50 in cell proliferation assay, K-562 cell line) of 383 nM, an IC50 (134 cancer cell lines; Homo sapiens, KATO III, read-out: IC50 in cell proliferation assay, KATO III cell line (FGFR2 amplification)) of 5400 nM and an IC50 (134 cancer cell lines; Homo sapiens, KG-1, read-out: IC50 in cell proliferation assay, KG-1 cell line (FGFR1OP2-FGFR1)) of 404 nM. For the same compound, the IC50 (134 cancer cell lines; Homo sapiens, KLE, read-out: IC50 in cell proliferation assay, KLE cell line) was > 31600 nM, the IC50 (134 cancer cell lines; Homo sapiens, KMS-11, read-out: IC50 in cell proliferation assay, KMS-11 cell line (FGFR3 p.Y373C)) was > 31600 nM and the IC50 (134 cancer cell lines; Homo sapiens, KU812, read-out: IC50 in cell proliferation assay, Ku812 cell line) was 30 nM. For the same compound, the IC50 (134 cancer cell lines; Homo sapiens, Kasumi 1, read-out: IC50 in cell proliferation assay, Kasumi-1 cell line (KIT p.N822K)) was 192 nM, the IC50 (134 cancer cell lines; Homo sapiens, LC-2-ad, read-out: IC50 in cell proliferation assay, LC-2/ad cell line (CCDC6-RET)) was 84 nM and the IC50 (134 cancer cell lines; Homo sapiens, LNCaP-Clone-FGC, read-out: IC50 in cell proliferation assay, LNCaP clone FGC cell line) was > 31600 nM. For the same compound, the IC50 (134 cancer cell lines; Homo sapiens, LS174T, read-out: IC50 in cell proliferation assay, LS174T cell line) was 70 nM, the IC50 (134 cancer cell lines; Homo sapiens, LS-411N, read-out: IC50 in cell proliferation assay, LS411N cell line (BRAF p.V600E)) was 61 nM and the IC50 (134 cancer cell lines; Homo sapiens, LoVo, read-out: IC50 in cell proliferation assay, LoVo cell line) was 23 nM. For the same compound, the IC50 (134 cancer cell lines; Homo sapiens, MCF7, read-out: IC50 in cell proliferation assay, MCF-7 cell line) was > 31600 nM, the IC50 (134 cancer cell lines; Homo sapiens, MDA-MB-231, read-out: IC50 in cell proliferation assay, MDA-MB-231 cell line) was 1010 nM and the IC50 (134 cancer cell lines; Homo sapiens, MDA-MB-453, read-out: IC50 in cell proliferation assay, MDA-MB-453 cell line) was > 31600 nM. The IC50 (134 cancer cell lines; Homo sapiens, MDA-MB-468, read-out: IC50 in cell proliferation assay, MDA-MB-468 cell line) was 64 nM, the IC50 (134 cancer cell lines; Homo sapiens, MG-63, read-out: IC50 in cell proliferation assay, MG-63 cell line) was 2220 nM and the IC50 (134 cancer cell lines; Homo sapiens, MIA PaCa-2, read-out: IC50 in cell proliferation assay, MIA PaCa-2 cell line) was 140 nM. It also gave an IC50 (134 cancer cell lines; Homo sapiens, MKN-45, read-out: IC50 in cell proliferation assay, MKN45 cell line (MET amplification)) of 1150 nM.
